# From patent US20230263886A1, “VACCINES, VACCINE PRIMING, AND ANTIGEN DOSE SPARING” (priority 2020, published 2023)
# Assays:
# [1] = assay type: in vivo, C57BL/6J mice
# Procedure: Body weights were measured serially.
# [2] = test system: H3N2; conditions: including a recombinant influenza antigen
# Procedure: Sera were analyzed at days 0, 14, and 28 by ELISA for H3N2-specific IgG titers and HI (hemagglutination inhibition) titers, H1N1-specific IgG titers and HI titers, and B/Phuket-specific IgG titers and HI titers. All mice were previously naïve to human influenza.
# [3] = test system: H3N2; test: H3N2-specific IgG by ELISA, dose-sparing study in mice (Example 4); conditions: FIG. 26
# Procedure: Sera were analyzed at days 0, 21 and 42 by ELISA for H3N2-specific IgG.
Compound,body weight after immunization ([1]; mice receiving TQL-1055),dose sparing for vaccine antigens [2],"antigen dose-sparing effects, murine antibody response to FLUBLOK [3]",maximum weight loss ([1]; mice receiving 20 mcg of QS-21)
CC1O[C@@H](OC2C(O)[C@@H](NC(=O)CCCCCCCCCCC(=O)O)C(CO)O[C@H]2OC(=O)[C@]23CCC(C)(C)CC2C2=CCC4C5(C)CC[C@H](O)C(C)(C=O)C5CCC4(C)C2(C)CC3O)C(O)C(O)[C@H]1O[C@@H]1OC[C@@H](O)C(O)C1O (stereo partly shown) [TQL-1055],gained weight steadily,at least 32 ×,superior antigen dose-sparing effects,–
QS-21 [reference compound],–,–,–,> 10%
